According to patent publication US9469615B2, “Quinoxalines and AZA-quinoxalines as CRTH2 receptor modulators” (Merck Sharp & Dohme Corp., priority 2010, dated 2016):

Target: T1, hCRTH2 (Homo sapiens, UniProt Q9Y5Y4)
T1 construct: expressed in transfected cells; host or cells: HEK (human embryonic kidney) cells expressing hCRTH2; membrane preparation
T1 sequence (Q9Y5Y4 1-395): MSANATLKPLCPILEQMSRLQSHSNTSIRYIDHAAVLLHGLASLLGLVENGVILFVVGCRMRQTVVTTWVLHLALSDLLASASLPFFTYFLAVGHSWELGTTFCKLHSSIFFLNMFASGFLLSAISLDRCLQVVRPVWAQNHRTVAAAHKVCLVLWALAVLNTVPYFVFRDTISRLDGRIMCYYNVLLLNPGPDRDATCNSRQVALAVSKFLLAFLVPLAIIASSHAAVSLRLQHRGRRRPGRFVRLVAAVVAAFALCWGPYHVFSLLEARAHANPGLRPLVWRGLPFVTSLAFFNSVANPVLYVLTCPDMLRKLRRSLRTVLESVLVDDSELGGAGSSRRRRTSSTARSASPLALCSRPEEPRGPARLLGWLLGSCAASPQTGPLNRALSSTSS
Assay: Radioligand binding assay ([3H]PGD2 competition, HEK-hCRTH2 membranes)
Conditions: [3H]PGD2 competition, Table B
Outline: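 Membranes (8-20 μg protein) from HEK-hCRTH2 cells were incubated 60 min at room temperature with 3.0 nM [3H]PGD2 in 50 mM Tris-HCl pH 7.4, 1 mM EDTA, 2 mM MnCl2, 1% DMSO. Non-specific binding defined with 10 μM PGD2. Bound radioactivity counted after filtration.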

Row | Structure (SMILES) | Ki [nM]
1 | C[C@H]1CN(c2ccc(Cl)cc2)CCN1C(=O)c1ccc2nc(-c3ccc(Cl)cc3)c(CCCCC(=O)O)nc2c1 [compound 541, (S)-5-(3-(4-chlorophenyl)-7-(4-(4-chlorophenyl)-2-methylpiperazine-1-carbonyl)quinoxalin-2-yl)pentanoic acid] | 2.1 to 20
2 | C[C@H]1CN(c2ccc(Cl)cc2)CCN1C(=O)c1ccc2nc(-c3ccc(F)cc3)c(CCCCC(=O)O)nc2c1 [compound 542, (S)-5-(7-(4-(4-chlorophenyl)-2-methylpiperazine-1-carbonyl)-3-(4-fluorophenyl)quinoxalin-2-yl)pentanoic acid] | 2.1 to 20
3 | O=C(O)Cc1cccc(CCCc2nc3cc(C(=O)N4CCN(c5ccccc5)CC4)ccc3nc2-c2ccc(Cl)cc2)c1 [compound 543, 2-(3-(3-(3-(4-chlorophenyl)-7-(4-phenylpiperazine-1-carbonyl)quinoxalin-2-yl)propyl)phenyl)acetic acid] | 20.1 to 200
4 | CN(Cc1ccc(F)cc1)C(=O)c1ccc2nc(-c3ccc(Cl)cc3)c(CCCc3cccc(CC(=O)O)c3)nc2c1 [compound 544, 2-(3-(3-(3-(4-chlorophenyl)-7-((4-fluorobenzyl) (methyl)carbamoyl)quinoxalin-2-yl)propyl)phenyl)acetic acid] | 20.1 to 200
5 | C[C@@H](NC(=O)c1ccc2nc(-c3ccc(Cl)cc3)c(CCCc3cccc(CC(=O)O)c3)nc2c1)c1ccc(F)cc1 [compound 545, (R)-2-(3-(3-(3-(4-chlorophenyl)-7-((1-(4-fluorophenyl)ethyl)carbamoyl)quinoxalin-2-yl)propyl)phenyl)acetic acid] | 201 to 700
6 | O=C(O)Cc1cccc(CCCc2nc3cc(C(=O)NCc4ccc(Cl)cc4)ccc3nc2-c2ccc(Cl)cc2)c1 [compound 546, 2-(3-(3-(7-((4-chlorobenzyl)carbamoyl)-3-(4-chlorophenyl)quinoxalin-2-yl)propyl)phenyl) acetic acid] | 20.1 to 200
7 | O=C(N[C@@H]1CCOc2ccccc21)c1ccc2nc(-c3ccc(F)cc3)c(CCCC(F)(F)C(=O)O)nc2c1 [compound 547] | 20.1 to 200
8 | O=C(N[C@H]1CCOc2ccccc21)c1ccc2nc(-c3ccc(F)cc3)c(CCCC(F)(F)C(=O)O)nc2c1 [compound 548, (S)-5-(7-(chroman-4-ylcarbamoyl)-3-(4-fluorophenyl)quinoxalin-2-yl)-2,2-difluoro-pentanoic acid] | 201 to 700
9 | C[C@H]1CN(c2ccccc2)CCN1C(=O)c1ccc2nc(-c3ccccc3)c(CCCCC(=O)O)nc2c1 [compound 549, (S)-5-(7-(2-methyl-4-phenylpiperazine-l-carbonyl)-3-phenylquinoxalin-2-yl)pentanoic acid] | 2.1 to 20
10 | C[C@@H]1CN(c2ccc(Cl)cc2)CCN1C(=O)c1ccc2nc(-c3ccccc3)c(CCCCC(=O)O)nc2c1 [compound 550, (R)-5-(7-(4-(4-chlorophenyl)-2-methylpiperazine-1-carbonyl)-3-phenyl-quinoxa1in-2-yl)pentanoic acid] | 2.1 to 20
11 | C[C@H]1CN(c2ccc(Cl)cc2)CCN1C(=O)c1ccc2nc(-c3ccccc3)c(CCCCC(=O)O)nc2c1 [compound 551, (S)-5-(7-(4-(4-chlorophenyl)-2-methylpiperazine-1-carbonyl)-3-phenyl-quinoxalin-2-yl)pentanoic acid] | 2.1 to 20
12 | O=C(O)CCCCc1nc2cc(C(=O)N3CCN(c4ncccn4)CC3)ccc2nc1-c1ccc(Cl)cc1 [compound 552, 5-(3-(4-chlorophenyl)-7-(4-(pyrimidin-2-yl)piperazine-1-carbonyl)quinoxalin-2-yl)pentanoic acid] | 2.1 to 20
13 | O=C(O)CCCCc1nc2cc(C(=O)N3CCN(c4ccccc4)C(=O)C3)ccc2nc1-c1ccc(Cl)cc1 [compound 553, 5-(3-(4-chlorophenyl)-7-(3-oxo-4-phenylpiperazine-1-carbonyl)quinoxalin-2-yl)pentanoic acid] | 2.1 to 20
14 | O=C(O)CCCCc1nc2cc(C(=O)N3CCN(c4ccccn4)CC3)ccc2nc1-c1ccc(Cl)cc1 [compound 554, 5-(3-(4-chlorophenyl)-7-(4-(pyridin-2-yl)piperazine-1-carbonyl)quinoxalin-2-yl)pentanoic acid] | 2.1 to 20
15 | O=C(O)CCCCc1nc2cc(C(=O)N3CCN(Cc4ccccc4)CC3)ccc2nc1-c1ccc(Cl)cc1 [compound 555, 5-(7-(4-benzylpiperazine-1-carbonyl)-3-(4-chlorophenyl)quinoxalin-2-yl)pentanoic acid] | 2.1 to 20
16 | CC1(C)CCC(NC(=O)c2ccc3nc(-c4ccc(Cl)cc4)c(CCCCC(=O)O)nc3c2)c2ccccc21 (centres unmarked) [compound 556] | 2.1 to 20

Row | Structure (SMILES) | Ki [nM]
17 | O=C(O)CCCCc1nc2cc(C(=O)N3CCc4cc(F)ccc4C3)ccc2nc1-c1ccc(Cl)cc1 [compound 557, 5-(3-(4-chlorophenyl)-7-(6-fluoro-1,2,3,4-tetrahydroisoquinoline-2-carbonyl)quinoxalin-2-yl)pentanoic acid] | 2.1 to 20
18 | CC1(C)c2ccc(F)cc2CN1C(=O)c1ccc2nc(-c3ccc(Cl)cc3)c(CCCCC(=O)O)nc2c1 [compound 558, 5-(3-(4-chlorophenyl)-7-(5-fluoro-1,1-dimethylisoindoline-2-carbonyl)quinoxalin-2-yl)pentanoic acid] | 2.1 to 20
19 | O=C(O)CCCCc1nc2cc(C(=O)N3CC[C@H](c4ccc(F)cc4)C3)ccc2nc1-c1ccc(Cl)cc1 [compound 559, (R)-5-(3-(4-chlorophenyl)-7-(3-(4-fluorophenyl)pyrrolidine-1-carbonyl)quinoxalin-2-yl)pentanoic acid] | 0.1 to 2
20 | O=C(O)CCCCc1nc2cc(C(=O)N3CC[C@@H](c4ccc(F)cc4)C3)ccc2nc1-c1ccc(Cl)cc1 [compound 560, (S)-5-(3-(4-chlorophenyl)-7-(3-(4-fluorophenyl)pyrrolidine-1-carbonyl)quinoxalin-2-yl)pentanoic acid] | 0.1 to 2
21 | O=C(O)CCCCc1nc2cc(C(=O)NC3CCCOc4ccccc43)ccc2nc1-c1ccc(Cl)cc1 (centres unmarked) [compound 561, 5-(3-(4-chlorophenyl)-7-((2,3,4,5-tetrahydrobenzo[b]oxepin-5-yl)carbamoyl)quinoxalin-2-yl)pentanoic acid] | 0.1 to 2
22 | O=C(O)CCCCc1nc2cc(C(=O)N[C@H]3COc4ccccc43)ccc2nc1-c1ccc(Cl)cc1 [compound 562, (R)-5-(3-(4-chlorophenyl)-7-((2,3-dihydrobenzofuran-3-yl)carbamoyl)quinoxalin-2-yl)pentanoic acid] | 0.1 to 2
23 | O=C(O)CCCCc1nc2cc(C(=O)N[C@@H]3COc4ccccc43)ccc2nc1-c1ccc(Cl)cc1 [compound 563, (S)-5-(3-(4-chlorophenyl)-7-((2,3-dihydrobenzofuran-3-yl)carbamoyl)quinoxalin-2-yl)pentanoic acid] | 0.1 to 2
24 | CC1(C)CC(NC(=O)c2ccc3nc(-c4ccc(Cl)cc4)c(CCCCC(=O)O)nc3c2)c2ccccc2O1 (centres unmarked) [compound 564, 5-(3-(4-chlorophenyl)-7-((2,2-dimethylchroman-4-yl)carbamoyl)quinoxalin-2-yl)pentanoic acid] | 2.1 to 20
25 | O=C(O)CCCCc1nc2cc(C(=O)N3CCC4(CCCc5ccccc54)C3)ccc2nc1-c1ccc(Cl)cc1 (centres unmarked) [compound 565, 5-(3-(4-chlorophenyl)-7-(3,4-dihydro-2H-spiro [naphthalene-1,3′-pyrrolidin]-1′-ylcarbonyl)quinoxalin-2-yl)pentanoic acid] | 0.1 to 2
26 | O=C(O)CCCCc1nc2cc(C(=O)NC3C(=O)Nc4ccccc43)ccc2nc1-c1ccc(Cl)cc1 (centres unmarked) [compound 566, 5-(3-(4-chlorophenyl)-7-((2-oxoindolin-3-yl)carbamoyl)quinoxalin-2-yl)pentanoic acid] | 2.1 to 20
27 | O=C(O)CCCCc1nc2cc(C(=O)N3CCC4(CC3)NC(=O)Cc3ccccc34)ccc2nc1-c1ccc(Cl)cc1 [compound 567] | 0.1 to 2
28 | O=C(O)CCCCc1nc2cc(C(=O)N3CCC4(CC3)Cc3ccccc3C(=O)N4)ccc2nc1-c1ccc(Cl)cc1 [compound 568, 5-(3-(4-chlorophenyl)-7-(1-oxo-2,4-dihydro-1H-spiro[isoquinoline-3,4′-piperidin]-1′-ylcarbonyl)quinoxalin-2-yl)pentanoic acid] | 2.1 to 20
29 | O=C(O)CCCCc1nc2cc(C(=O)N[C@@H]3CCSc4ccccc43)ccc2nc1-c1ccc(Cl)cc1 [compound 569, (R)-5-(3-(4-chlorophenyl)-7-(thiochroman-4-ylcarbamoyl)quinoxalin-2-yl)pentanoic acid] | 0.1 to 2
30 | O=C(O)CCCCc1nc2cc(C(=O)N[C@@H]3CCCCc4ccccc43)ccc2nc1-c1ccc(Cl)cc1 [compound 570, (R)-5-(3-(4-chlorophenyl)-7-((6,7,8,9-tetrahydro-5H-benzo[7]annulen-5-yl)carbamoyl)quinoxalin-2-yl)pentanoic acid] | 2.1 to 20
31 | C[C@H](NC(=O)c1ccc2nc(-c3ccc(F)cc3)c(CCCCC(=O)O)nc2c1)c1ccc(F)c2ccccc12 [compound 571, (S)-5-(7-((1-(4-fluoronaphthalen-1-yl)ethyl)carbamoyl)-3-(4-fluorophenyl)quinoxalin-2-yl)pentanoic acid] | 2.1 to 20
32 | C[C@@H](NC(=O)c1ccc2nc(-c3ccc(F)cc3)c(CCCCC(=O)O)nc2c1)c1ccc(F)c2ccccc12 [compound 572, (R)-5-(7-((1-(4-fluoronaphthalen-1-yl)ethyl)carbamoyl)-3-(4-fluorophenyl)quinoxalin-2-yl)pentanoic acid] | 20.1 to 200
